Reference: PubChem BioAssay AID248 (DTP/NCI, 2004)
Values joined by “and” are separate entries in the source; they are usually repeats but may differ in a detail not shown here. Identical values can stand only once. Inconclusive results and toxic doses are left out. No stated cut-off is given here; in the data, active means T/C of 150% or more; inactive means T/C below 125%.

Tested on: L1210 leukemia ip in BDF1 mice, survival T/C
Test: NCI In Vivo Anticancer Drug Screen. Data for tumor model L1210 Leukemia (intraperitoneal) in B6D2F1 (BDF1) mice
Conditions: endpoint: mean survival time, higher = longer survival
How it was run: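 Survival endpoint. Drug-treated group vs vehicle group, expressed as T divided by C. Tumor passaged by transplantation.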

[1] = dose: 100.0 mg/kg/injection, schedule: Q04DX002 (ip), vehicle: Klucel (hydroxypropylcellulose) (HPC)
[2] = dose: 200.0 mg/kg/injection, schedule: Q04DX002 (ip), vehicle: Klucel (hydroxypropylcellulose) (HPC)
[3] = dose: 100.0 mg/kg/injection, schedule: Q01DX001 (ip), vehicle: saline
[4] = dose: 100.0 mg/kg/injection, schedule: Q04DX003 (ip), vehicle: saline
[5] = dose: 200.0 mg/kg/injection, schedule: Q01DX001 (ip), vehicle: saline
[6] = dose: 200.0 mg/kg/injection, schedule: Q04DX003 (ip), vehicle: saline
[7] = dose: 100.0 mg/kg/injection, schedule: Q04DX003 (ip), vehicle: Klucel (hydroxypropylcellulose) (HPC)
[8] = dose: 200.0 mg/kg/injection, schedule: Q04DX003 (ip), vehicle: Klucel (hydroxypropylcellulose) (HPC)
[9] = dose: 400.0 mg/kg/injection, schedule: Q04DX003 (ip), vehicle: Klucel (hydroxypropylcellulose) (HPC)
[10] = dose: 100.0 mg/kg/injection, schedule: Q04DX003 (ip), vehicle: saline with Tween-80
[11] = dose: 200.0 mg/kg/injection, schedule: Q04DX003 (ip), vehicle: saline with Tween-80
[12] = dose: 400.0 mg/kg/injection, schedule: Q01DX001 (ip), vehicle: saline
[13] = dose: 400.0 mg/kg/injection, schedule: Q04DX003 (ip), vehicle: saline with Tween-80
[14] = dose: 100.0 mg/kg/injection, schedule: Q01DX001 (ip), vehicle: Klucel (hydroxypropylcellulose) (HPC)
[15] = dose: 200.0 mg/kg/injection, schedule: Q01DX001 (ip), vehicle: Klucel (hydroxypropylcellulose) (HPC)
[16] = dose: 400.0 mg/kg/injection, schedule: Q01DX001 (ip), vehicle: Klucel (hydroxypropylcellulose) (HPC)
[17] = dose: 100.0 mg/kg/injection, schedule: Q01DX005 (ip), vehicle: saline
[18] = dose: 200.0 mg/kg/injection, schedule: Q01DX005 (ip), vehicle: saline

Measured: T/C

CCN(C(C)(C)C(SSSC(c1ccc(Cl)cc1)C(C)(C)N(CC)S(C)(=O)=O)c1ccc(Cl)cc1)S(C)(=O)=O (configuration not stated)
inactive: dose: 100.0 mg/kg/injection, schedule: Q01DX009 (ip), vehicle: saline with Tween-80 91 % of control

O=C(NN1C(=O)c2cccc3cccc(c23)C1=O)NN1C(=O)c2cccc3cccc(c23)C1=O
inactive: [1] 92 % of control | [2] 92 % of control

N#Cc1ccc([N+](=O)[O-])cc1O
inactive: dose: 50.0 mg/kg/injection, schedule: Q04DX003 (ip), vehicle: saline 96 % of control | [3] 98 % of control | [4] 95 % of control | [5] 104 % of control | [6] 96 % of control

O=[N+]([O-])C(Cl)(CN1CCOCC1)CN1CCOCC1
inactive: dose: 11.1 mg/kg/injection, schedule: Q01DX Z (ip), vehicle: saline 113 % of control | dose: 16.6 mg/kg/injection, schedule: Q01DX Z (ip), vehicle: saline 91 % of control | dose: 25.0 mg/kg/injection, schedule: Q01DX Z (ip), vehicle: saline 95 % of control

CN(C)c1ccc(CC2Cc3ccccc3C2=O)cc1 (configuration not stated)
inactive: dose: 100.0 mg/kg/injection, schedule: Q01DX009 (ip), vehicle: other 96 % of control | [7] 117 % of control | dose: 200.0 mg/kg/injection, schedule: Q01DX009 (ip), vehicle: other 89 % of control | [8] 103 % of control | dose: 400.0 mg/kg/injection, schedule: Q01DX009 (ip), vehicle: other 91 % of control | [9] 98 % of control

CCCCCCCCCCCCCCCCOc1ccc(C(=O)OC)cc1N
inactive: [7] 102 % of control | [8] 104 % of control | [9] 96 % of control

Cc1cnc(SC(C)(C)C)c(C)c1
inactive: [3] 109 % of control | dose: 100.0 mg/kg/injection, schedule: Q01DX009 (ip), vehicle: saline 100 % of control | [1] 98 % of control and 100 % of control | [10] 108 % of control | [5] 107 % of control | dose: 200.0 mg/kg/injection, schedule: Q01DX009 (ip), vehicle: saline 94 % of control and 104 % of control | [2] 100 % of control and 106 % of control | [11] 102 % of control | [12] 109 % of control | dose: 400.0 mg/kg/injection, schedule: Q01DX009 (ip), vehicle: saline 100 % of control and 107 % of control | dose: 400.0 mg/kg/injection, schedule: Q04DX002 (ip), vehicle: Klucel (hydroxypropylcellulose) (HPC) 95 % of control and 97 % of control | [13] 91 % of control

CC1CCc2cccc(NC(=O)NCCCl)c21 (configuration not stated)
inactive: [14] 99 % of control | [7] 92 % of control | [15] 91 % of control | [8] 92 % of control | [16] 96 % of control | [9] 92 % of control

CCOC(=O)C(NC(=O)NS(=O)(=O)c1ccc(C)cc1)C(=O)OCC
inactive: [14] 91 % of control | [15] 92 % of control | [16] 91 % of control

O=C([O][Bi]([c]1ccccc1)[c]1ccccc1)C(F)(F)F
inactive: dose: 100.0 mg/kg/injection, schedule: Q04DX002 (ip), vehicle: saline with Tween-80 95 % of control | dose: 200.0 mg/kg/injection, schedule: Q04DX002 (ip), vehicle: saline with Tween-80 95 % of control | dose: 400.0 mg/kg/injection, schedule: Q04DX002 (ip), vehicle: saline with Tween-80 92 % of control

CS(=O)(=O)c1cc(N2CC2)ncn1
inactive: dose: 4.0 mg/kg/injection, schedule: Q01DX015 (ip), vehicle: carboxymethylcellulose (CMC) 96 % of control | dose: 8.0 mg/kg/injection, schedule: Q01DX015 (ip), vehicle: carboxymethylcellulose (CMC) 102 % of control | dose: 16.0 mg/kg/injection, schedule: Q01DX015 (ip), vehicle: carboxymethylcellulose (CMC) 108 % of control | dose: 32.0 mg/kg/injection, schedule: Q01DX015 (ip), vehicle: carboxymethylcellulose (CMC) 113 % of control and 120 % of control | dose: 64.0 mg/kg/injection, schedule: Q01DX015 (ip), vehicle: carboxymethylcellulose (CMC) 110 % of control

Cc1cccc(CN=C(N)CCl)n1
inactive: [1] 98 % of control | [2] 95 % of control

O=C1Cc2ccccc2C(=O)N1
inactive: dose: 25.0 mg/kg/injection, schedule: Q01DX Z (ip), vehicle: carboxymethylcellulose (CMC) 91 % of control | dose: 40.0 mg/kg/injection, schedule: Q01DX Z (ip), vehicle: carboxymethylcellulose (CMC) 104 % of control | dose: 60.0 mg/kg/injection, schedule: Q01DX Z (ip), vehicle: carboxymethylcellulose (CMC) 112 % of control | dose: 90.0 mg/kg/injection, schedule: Q01DX Z (ip), vehicle: carboxymethylcellulose (CMC) 100 % of control | dose: 100.0 mg/kg/injection, schedule: Q04DX003 (ip), vehicle: saline sonified 100 % of control | dose: 200.0 mg/kg/injection, schedule: Q04DX003 (ip), vehicle: saline sonified 99 % of control | dose: 400.0 mg/kg/injection, schedule: Q04DX003 (ip), vehicle: saline sonified 100 % of control

O=[N+]([O-])c1cccc(S(=O)(=O)NNc2cccc(Cl)c2)c1
inactive: [7] 94 % of control | [8] 94 % of control | [9] 98 % of control

CC(=O)Nc1ccc(Br)cc1[N+](=O)[O-]
inactive: dose: 100.0 mg/kg/injection, schedule: Q01DX009 (ip), vehicle: acetone 92 % of control | dose: 200.0 mg/kg/injection, schedule: Q01DX009 (ip), vehicle: acetone 106 % of control | dose: 400.0 mg/kg/injection, schedule: Q01DX009 (ip), vehicle: acetone 101 % of control

COC(=O)c1ccccc1N=NNc1ccc2c(=O)c3ccccc3[nH]c2c1
inactive: [4] 95 % of control | [6] 86 % of control | dose: 400.0 mg/kg/injection, schedule: Q04DX003 (ip), vehicle: saline 86 % of control

Nc1nc(-c2ccccc2)[nH]c(=O)n1
inactive: dose: 100.0 mg/kg/injection, schedule: Q01DX009 (ip), vehicle: Klucel (hydroxypropylcellulose) (HPC) 100 % of control | dose: 200.0 mg/kg/injection, schedule: Q01DX009 (ip), vehicle: Klucel (hydroxypropylcellulose) (HPC) 91 % of control | dose: 400.0 mg/kg/injection, schedule: Q01DX009 (ip), vehicle: Klucel (hydroxypropylcellulose) (HPC) 93 % of control

O=C(CC1(O)C(=O)Nc2ccccc21)CC1(O)C(=O)Nc2ccccc21 (configuration not stated)
inactive: dose: 100.0 mg/kg/injection, schedule: Q01DX007 (ip), vehicle: Klucel (hydroxypropylcellulose) (HPC) 110 % of control | [7] 100 % of control | dose: 200.0 mg/kg/injection, schedule: Q01DX007 (ip), vehicle: Klucel (hydroxypropylcellulose) (HPC) 118 % of control | [8] 97 % of control | dose: 400.0 mg/kg/injection, schedule: Q01DX007 (ip), vehicle: Klucel (hydroxypropylcellulose) (HPC) 103 % of control | [9] 92 % of control

CC(=O)Nc1c(C(N)=O)ncn1C1OC(COC(C)=O)C(OC(C)=O)C1OC(C)=O (configuration not stated)
inactive: [17] 96 % of control | [18] 100 % of control

CN(C)c1ccc(C=Nc2cc(Cl)ccc2O)cc1
inactive: [3] 107 % of control | [5] 100 % of control | [12] 100 % of control

CCOC(=O)c1cnc(SCC)nc1SC#N
inactive: dose: 100.0 mg/kg/injection, schedule: Q01DX009 (ip), vehicle: gum acacia 105 % of control | dose: 100.0 mg/kg/injection, schedule: Q04DX003 (ip), vehicle: gum acacia 105 % of control | dose: 200.0 mg/kg/injection, schedule: Q01DX009 (ip), vehicle: gum acacia 106 % of control | dose: 200.0 mg/kg/injection, schedule: Q04DX003 (ip), vehicle: gum acacia 97 % of control | dose: 400.0 mg/kg/injection, schedule: Q01DX009 (ip), vehicle: gum acacia 97 % of control | dose: 400.0 mg/kg/injection, schedule: Q04DX003 (ip), vehicle: gum acacia 97 % of control

CC1=NOC(=O)C1C(C)(C)C1C(=O)ON=C1C (configuration not stated)
inactive: [10] 101 % of control | [11] 95 % of control | [13] 101 % of control

C[Se]c1nc2c(=O)[nH]cnc2n1C1OC(CO)C(O)C1O (configuration not stated)
inactive: [17] 103 % of control | [18] 111 % of control
